These results are taken from ChEMBL document CHEMBL5370674, “Optimization of mTOR Inhibitors Using Property-Based Drug Design and Free-Wilson Analysis for Improved In Vivo Efficacy” (ACS Med Chem Lett, 2023).

Series [1] is described as follows: Apparent intrinsic clearance in human liver microsomes. Conditions: read-out: CLH(app). The series is classed as ADME, Microsome. For orientation: Liver microsomes are a subcellular fraction often used to study metabolism.
The nature of series [2]: Selectivity ratio of IC50 for inhibition of PI3Kalpha (unknown origin) to IC50 for inhibition of recombinant human GST-tagged mTOR (1360 to 2549 residues) expressed in insect cells.
A short description of series [3]: Intrinsic clearance in human liver microsomes. The series is classed as ADME, Microsome. Conditions: read-out: CLH.
Series [4] relates to A549. As to the kind of experiment: Antitumor activity against human A549 cells xenografted in BALB/c Nu/Nu mouse assessed as tumor growth inhibition at 30 mg/kg, po administrated for 14 days relative to control. The format is functional. Conditions: A549, 336 h, time 14 day, read-out: TGI. On the technique in general: A xenograft is tissue or cells of one species grown in another, often human tumour cells in immunodeficient mice.

Series [5] is described as follows: Toxicity in Balb/c Nu/Nu mouse xenografted with human A549 cells assessed as reduction in body weight at 30 mg/kg, po administrated for 14 days. The format is organism-based. Details: scale not given: the % may be the effect or the level left. Conditions: in vivo, 336 h, time 14 day.
A short description of series [6]: Fraction absorbed in rat at 4 mg/kg, po. The format is ADME, organism-based. Conditions: in vivo, read-out: Fabs.
Series [7] deals with A549. The series is described as follows: Antitumor activity against human A549 cells xenografted in BALB/c Nu/Nu mouse assessed as tumor growth inhibition at 2 mg/kg, po administrated for 14 days relative to control. Conditions: A549, 336 h, time 14 day, read-out: TGI. The series is classed as functional.
Series [8] in a line: Toxicity in Balb/c Nu/Nu mouse xenografted with human A549 cells assessed as reduction in body weight at 2 to 6 mg/kg, po administrated for 14 days. The series is classed as organism-based. Details: scale not given: the % may be the effect or the level left. Conditions: in vivo, 336 h, dose 2-6 mg/kg, time 14 day.
The next series deals with Cytochrome P450 2C9 (Homo sapiens, UniProt P11712). The series is described as follows: Inhibition of CYP2C9 (unknown origin). The format is ADME.
Cytochrome P450 2C9, sequence (P11712 whole entry): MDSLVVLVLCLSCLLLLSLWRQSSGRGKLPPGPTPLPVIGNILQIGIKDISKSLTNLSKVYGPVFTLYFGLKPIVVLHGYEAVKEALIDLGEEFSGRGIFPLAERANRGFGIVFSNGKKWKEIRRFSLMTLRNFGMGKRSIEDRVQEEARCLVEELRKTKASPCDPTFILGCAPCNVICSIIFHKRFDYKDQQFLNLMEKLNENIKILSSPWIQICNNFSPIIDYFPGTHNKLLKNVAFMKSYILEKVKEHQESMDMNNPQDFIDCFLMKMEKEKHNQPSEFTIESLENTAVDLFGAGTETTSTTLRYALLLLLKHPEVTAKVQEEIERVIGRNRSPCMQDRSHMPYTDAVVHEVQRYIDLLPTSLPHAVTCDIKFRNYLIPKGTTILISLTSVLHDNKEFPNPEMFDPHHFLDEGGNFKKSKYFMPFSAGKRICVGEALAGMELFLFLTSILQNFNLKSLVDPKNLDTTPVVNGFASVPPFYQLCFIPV
In a further series the target is Cytochrome P450 3A4 (Homo sapiens, UniProt P08684). As to the kind of experiment: Inhibition of CYP3A4 (unknown origin). The format is ADME.
Cytochrome P450 3A4, sequence (P08684 whole entry): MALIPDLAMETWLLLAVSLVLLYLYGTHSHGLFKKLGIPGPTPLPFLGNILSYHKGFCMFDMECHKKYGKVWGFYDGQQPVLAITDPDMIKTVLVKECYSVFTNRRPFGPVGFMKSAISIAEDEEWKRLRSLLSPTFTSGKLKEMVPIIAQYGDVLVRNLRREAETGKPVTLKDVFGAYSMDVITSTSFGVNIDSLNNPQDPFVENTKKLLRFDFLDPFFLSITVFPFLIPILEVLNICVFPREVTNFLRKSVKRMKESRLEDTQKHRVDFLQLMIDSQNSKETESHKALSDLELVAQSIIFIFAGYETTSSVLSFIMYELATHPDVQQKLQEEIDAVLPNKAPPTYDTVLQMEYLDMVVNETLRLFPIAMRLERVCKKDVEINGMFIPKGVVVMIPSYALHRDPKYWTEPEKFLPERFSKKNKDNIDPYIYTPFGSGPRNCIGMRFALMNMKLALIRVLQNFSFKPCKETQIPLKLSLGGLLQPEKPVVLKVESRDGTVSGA
The next series deals with Cytochrome P450 2C19 (Homo sapiens, UniProt P33261). As to the kind of experiment: Inhibition of CYP2C19 (unknown origin). The series is classed as ADME.
Cytochrome P450 2C19, sequence (P33261 whole entry): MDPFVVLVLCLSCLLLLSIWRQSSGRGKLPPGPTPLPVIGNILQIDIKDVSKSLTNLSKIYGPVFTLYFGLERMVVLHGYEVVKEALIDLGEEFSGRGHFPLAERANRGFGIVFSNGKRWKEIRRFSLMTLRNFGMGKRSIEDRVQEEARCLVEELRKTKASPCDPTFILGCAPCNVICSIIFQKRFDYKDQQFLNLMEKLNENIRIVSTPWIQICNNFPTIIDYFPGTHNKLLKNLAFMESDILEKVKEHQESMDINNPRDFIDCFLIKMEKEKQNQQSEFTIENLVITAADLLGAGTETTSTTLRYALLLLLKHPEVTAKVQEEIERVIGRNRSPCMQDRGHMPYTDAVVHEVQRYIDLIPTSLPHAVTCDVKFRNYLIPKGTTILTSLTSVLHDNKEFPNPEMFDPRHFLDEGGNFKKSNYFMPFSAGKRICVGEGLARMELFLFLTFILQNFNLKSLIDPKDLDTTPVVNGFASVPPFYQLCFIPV
Another series addresses Cytochrome P450 2D6 (Homo sapiens, UniProt P10635). As to the kind of experiment: Inhibition of CYP2D6 (unknown origin). The series is classed as ADME.
Another series addresses T1, Cytochrome P450 2C8 (Homo sapiens, UniProt P10632).
T1 sequence (P10632 whole entry): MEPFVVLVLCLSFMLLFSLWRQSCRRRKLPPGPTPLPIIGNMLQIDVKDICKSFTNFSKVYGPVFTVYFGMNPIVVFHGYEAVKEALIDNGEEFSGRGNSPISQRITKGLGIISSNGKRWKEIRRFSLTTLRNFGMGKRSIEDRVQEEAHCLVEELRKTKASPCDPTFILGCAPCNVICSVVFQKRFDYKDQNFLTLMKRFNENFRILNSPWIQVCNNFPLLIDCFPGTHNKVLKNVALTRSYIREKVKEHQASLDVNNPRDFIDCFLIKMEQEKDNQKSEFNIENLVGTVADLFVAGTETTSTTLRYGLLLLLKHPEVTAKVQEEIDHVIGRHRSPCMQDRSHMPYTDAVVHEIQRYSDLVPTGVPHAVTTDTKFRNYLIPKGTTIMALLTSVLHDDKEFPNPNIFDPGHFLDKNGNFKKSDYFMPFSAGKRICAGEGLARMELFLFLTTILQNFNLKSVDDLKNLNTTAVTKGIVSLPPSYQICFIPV
As to the kind of experiment: Inhibition of CYP2C8 (unknown origin). The series is classed as ADME.

The target of a further series is T2, Cytochrome P450 1A2 (Homo sapiens, UniProt P05177).
T2 sequence (P05177 whole entry): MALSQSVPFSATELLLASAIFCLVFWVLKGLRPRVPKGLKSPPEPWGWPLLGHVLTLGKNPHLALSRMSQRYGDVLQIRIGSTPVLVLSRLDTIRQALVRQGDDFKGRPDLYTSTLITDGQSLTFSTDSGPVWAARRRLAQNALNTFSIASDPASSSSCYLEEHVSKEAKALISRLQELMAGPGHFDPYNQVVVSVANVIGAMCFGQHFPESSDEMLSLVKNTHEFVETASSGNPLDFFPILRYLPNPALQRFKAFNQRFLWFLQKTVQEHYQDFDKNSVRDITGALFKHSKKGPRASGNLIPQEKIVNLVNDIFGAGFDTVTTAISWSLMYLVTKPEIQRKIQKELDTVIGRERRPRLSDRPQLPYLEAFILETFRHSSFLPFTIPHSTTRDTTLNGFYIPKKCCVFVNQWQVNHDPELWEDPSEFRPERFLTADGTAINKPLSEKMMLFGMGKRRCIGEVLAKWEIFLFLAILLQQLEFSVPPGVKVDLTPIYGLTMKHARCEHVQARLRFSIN
The series is described as follows: Inhibition of CYP1A2 (unknown origin). The format is ADME.

Cytochrome P450 2D6, sequence (P10635 whole entry): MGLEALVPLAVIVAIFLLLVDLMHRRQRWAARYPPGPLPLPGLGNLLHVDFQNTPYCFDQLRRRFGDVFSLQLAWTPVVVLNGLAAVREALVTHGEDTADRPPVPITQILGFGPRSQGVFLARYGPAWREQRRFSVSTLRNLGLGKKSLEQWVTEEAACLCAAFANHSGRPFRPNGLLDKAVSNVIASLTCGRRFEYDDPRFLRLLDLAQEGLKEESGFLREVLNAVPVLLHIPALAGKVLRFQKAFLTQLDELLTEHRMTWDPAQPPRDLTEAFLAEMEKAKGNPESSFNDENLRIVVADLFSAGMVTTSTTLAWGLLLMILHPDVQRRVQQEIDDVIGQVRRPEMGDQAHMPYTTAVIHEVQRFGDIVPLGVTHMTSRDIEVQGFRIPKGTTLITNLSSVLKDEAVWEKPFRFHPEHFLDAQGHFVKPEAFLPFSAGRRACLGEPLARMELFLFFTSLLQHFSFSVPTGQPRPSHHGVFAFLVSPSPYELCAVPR

In the case of `C[C@@]12COCCN1c1nc(-c3cnc4[nH]ccc4c3)ncc1N(C1CCOCC1)C2=O`, in [1], the CLint scaled was found to be 6 mL/min/kg. `Cc1ccc(-c2ncc3c(n2)N2CCOC[C@@]2(C)C(=O)N3[C@H]2CC[C@H](O)CC2)c2cc[nH]c12`: in series [1], the CLint scaled was 6 mL/min/kg.

As for `C[C@@]12COCCN1c1nc(-c3cnc4[nH]ccc4c3)ncc1N(C1CCN(S(C)(=O)=O)CC1)C2=O`, in series [1], the CLint scaled turned out to be 6 mL/min/kg. `C[C@@]12COCCN1c1nc(-c3cnc4[nH]ccc4c3)ncc1N(C1(CCO)CC1)C2=O`: in series [1], the CLint scaled was found to be 11 mL/min/kg. `CC(F)(F)CN1C(=O)[C@]2(C)COCCN2c2nc(-c3ccc(NC(=O)NC4CC4)cc3)ncc21`: in series [2], the Ratio IC50 was above 50. For the same molecule, in [3], the CLint scaled was below 10 mL/min/kg. Also, in the series on A549 [4], the inhibition in vivo at 30 mg/kg is 100%. Besides, the Activity in [5] was below 20%.

Turning to `C[C@@]12COCCN1c1nc(-c3cnc4[nH]ccc4c3)ncc1N(C1CCOC1)C2=O` (mixture of isomers), the CLint scaled in [1] was 12 mL/min/kg. `C[C@@]12COCCN1c1nc(-c3cccc4[nH]ccc34)ncc1N([C@H]1CC[C@H](O)CC1)C2=O`: the Fa in [6] is 100%. Besides, the inhibition in vivo at 2 mg/kg with A549 [7] amounted to 100%. The Activity in series [8] is below 20%. In general, IC50 refers to the concentration that inhibits the measured activity by half. In the case of `C[C@@]12COCCN1c1nc(-c3cccc4[nH]ccc34)ncc1N(C1CCOCC1)C2=O`, the half-inhibitory concentration (IC50) against Cytochrome P450 2C9, against Cytochrome P450 3A4, against Cytochrome P450 2C19, against Cytochrome P450 2D6, at Cytochrome P450 2C8 and on Cytochrome P450 1A2 was above 40 µM throughout. For the same molecule, the CLint scaled in series [1] turned out to be 10 mL/min/kg. For the molecule `COCCCN1C(=O)[C@]2(C)COCCN2c2nc(-c3cnc4[nH]ccc4c3)ncc21`, in series [1], the CLint scaled amounted to 32 mL/min/kg. Regarding `C[C@@]12COCCN1c1nc(-c3cccc4[nH]ccc34)ncc1N([C@H]1CC[C@@H](O)CC1)C2=O`, the CLint scaled in [1] worked out at 6 mL/min/kg.

For the molecule `Cc1cccc2c(-c3ncc4c(n3)N3CCOC[C@@]3(C)C(=O)N4[C@H]3CC[C@@H](O)CC3)c[nH]c12`, the CLint scaled in [1] came to 7 mL/min/kg.

For `CC(=O)N1CCC(N2C(=O)[C@]3(C)COCCN3c3nc(-c4cccc5[nH]ccc45)ncc32)CC1`, the CLint scaled in series [1] came to 6 mL/min/kg. For the molecule `Cc1ccc(-c2ncc3c(n2)N2CCOC[C@@]2(C)C(=O)N3[C@H]2CC[C@@H](O)CC2)c2cc[nH]c12`, the CLint scaled in series [1] came to 8 mL/min/kg. For the molecule `Cc1cccc2c(-c3ncc4c(n3)N3CCOC[C@@]3(C)C(=O)N4C3(CCCO)CC3)c[nH]c12`, the CLint scaled in series [1] came to 6 mL/min/kg. Regarding `Cc1cccc2c(-c3ncc4c(n3)N3CCOC[C@@]3(C)C(=O)N4[C@H]3CC[C@H](O)CC3)c[nH]c12`, the CLint scaled in series [1] amounted to 7 mL/min/kg.
